In patent US20230277630A1, “METHODS AND COMPOSITIONS FOR TREATING AMYOTROPHIC LATERAL SCLEROSIS” (Amylyx Pharmaceuticals, Inc., priority 2022, published 2023):
pIC50: −log10 of the molar value. Like-named read-outs stand apart in the source and are kept apart here.

Experiments:
BCRP = target: T1, BCRP (Homo sapiens, UniProt Q9UNQ0); experiment: BCRP IC50 assessment, bidirectional cladribine transport in BCRP-MDCK cells
T1 sequence (Q9UNQ0 1-655): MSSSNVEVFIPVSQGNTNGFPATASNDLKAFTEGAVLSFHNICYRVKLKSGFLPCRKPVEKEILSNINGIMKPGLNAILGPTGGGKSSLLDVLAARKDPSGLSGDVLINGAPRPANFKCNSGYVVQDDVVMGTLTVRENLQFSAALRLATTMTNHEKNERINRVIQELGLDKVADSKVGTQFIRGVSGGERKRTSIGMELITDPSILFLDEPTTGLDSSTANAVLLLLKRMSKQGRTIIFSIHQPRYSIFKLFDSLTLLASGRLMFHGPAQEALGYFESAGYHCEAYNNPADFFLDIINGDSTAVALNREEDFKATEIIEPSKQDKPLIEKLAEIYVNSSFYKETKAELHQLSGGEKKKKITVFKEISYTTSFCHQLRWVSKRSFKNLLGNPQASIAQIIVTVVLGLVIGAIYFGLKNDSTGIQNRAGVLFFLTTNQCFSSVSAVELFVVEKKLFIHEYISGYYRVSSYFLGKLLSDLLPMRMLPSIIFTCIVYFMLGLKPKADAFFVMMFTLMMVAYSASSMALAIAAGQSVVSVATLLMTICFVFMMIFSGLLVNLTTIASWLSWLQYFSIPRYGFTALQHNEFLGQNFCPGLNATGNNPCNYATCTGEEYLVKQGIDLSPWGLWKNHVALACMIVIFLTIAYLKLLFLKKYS
Method: After 30 minutes, the pre-incubation solution was aspirated.

hrCYP2C9 = hrCYP2C9 (Homo sapiens, UniProt P11712); conditions: recombinant enzyme, 5 μM, pH 7.4
Chain of hrCYP2C9 (P11712 whole entry): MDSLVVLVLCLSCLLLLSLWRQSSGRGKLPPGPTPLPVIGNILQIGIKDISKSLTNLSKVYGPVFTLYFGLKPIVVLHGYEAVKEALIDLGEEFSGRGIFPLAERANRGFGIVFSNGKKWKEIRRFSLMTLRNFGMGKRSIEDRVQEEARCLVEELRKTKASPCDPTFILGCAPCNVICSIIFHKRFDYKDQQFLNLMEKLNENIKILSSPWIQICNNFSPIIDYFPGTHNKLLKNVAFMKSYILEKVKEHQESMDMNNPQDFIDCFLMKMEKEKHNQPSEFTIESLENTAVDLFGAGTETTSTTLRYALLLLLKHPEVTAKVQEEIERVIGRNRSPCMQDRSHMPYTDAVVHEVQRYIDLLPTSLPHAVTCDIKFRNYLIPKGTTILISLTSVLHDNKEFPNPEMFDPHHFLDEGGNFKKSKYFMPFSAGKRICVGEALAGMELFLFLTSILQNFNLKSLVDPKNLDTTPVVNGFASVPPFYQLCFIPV
Method: (§1) The reaction was initiated by the addition of NADPH, followed by incubation at 37° C.
(§2) % Remaining of TA=100×At/A0
(§3) Where, At is the peak area ratio of TA to internal standard (IS) at time t, A0 is the average peak area ratio of TA to IS at time zero.

hrCYP2B6 = target: T2, hrCYP2B6 (Homo sapiens, UniProt P20813); conditions: recombinant enzyme, 5 μM, pH 7.4
T2 sequence (P20813 1-491): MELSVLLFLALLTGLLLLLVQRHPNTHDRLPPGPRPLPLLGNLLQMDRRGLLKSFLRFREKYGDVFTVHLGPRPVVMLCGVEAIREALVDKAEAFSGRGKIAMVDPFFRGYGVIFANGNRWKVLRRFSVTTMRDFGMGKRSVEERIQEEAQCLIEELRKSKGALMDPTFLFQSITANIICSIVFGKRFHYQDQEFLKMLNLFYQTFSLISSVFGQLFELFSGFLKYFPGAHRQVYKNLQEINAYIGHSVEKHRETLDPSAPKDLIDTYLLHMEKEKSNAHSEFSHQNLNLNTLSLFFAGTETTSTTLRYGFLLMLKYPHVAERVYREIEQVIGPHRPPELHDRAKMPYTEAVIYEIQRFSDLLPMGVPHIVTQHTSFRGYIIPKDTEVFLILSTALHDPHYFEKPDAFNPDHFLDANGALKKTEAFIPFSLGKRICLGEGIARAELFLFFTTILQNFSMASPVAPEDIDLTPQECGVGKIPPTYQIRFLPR
Method: as §1, §2, §3

hrCYP2C19 = hrCYP2C19 (Homo sapiens, UniProt P33261); conditions: recombinant enzyme, 5 μM, pH 7.4
Chain of hrCYP2C19 (P33261 whole entry): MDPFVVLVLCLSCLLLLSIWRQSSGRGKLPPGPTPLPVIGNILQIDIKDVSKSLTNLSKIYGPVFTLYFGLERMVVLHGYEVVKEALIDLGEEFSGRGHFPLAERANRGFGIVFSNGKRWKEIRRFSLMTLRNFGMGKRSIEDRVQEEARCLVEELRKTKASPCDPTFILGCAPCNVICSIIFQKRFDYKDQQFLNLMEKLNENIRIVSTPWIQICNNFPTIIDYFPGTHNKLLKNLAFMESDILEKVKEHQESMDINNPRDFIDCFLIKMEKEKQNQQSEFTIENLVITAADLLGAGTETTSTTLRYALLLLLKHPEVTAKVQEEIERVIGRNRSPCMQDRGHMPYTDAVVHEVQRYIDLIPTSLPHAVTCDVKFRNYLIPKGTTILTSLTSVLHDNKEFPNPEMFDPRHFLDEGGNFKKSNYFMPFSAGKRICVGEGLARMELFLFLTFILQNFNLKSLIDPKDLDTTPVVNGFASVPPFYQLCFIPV
Method: as §1, §2, §3

hrCYP3A4 = hrCYP3A4 (Homo sapiens, UniProt P08684); conditions: recombinant enzyme, 5 μM, pH 7.4
Chain of hrCYP3A4 (P08684 whole entry): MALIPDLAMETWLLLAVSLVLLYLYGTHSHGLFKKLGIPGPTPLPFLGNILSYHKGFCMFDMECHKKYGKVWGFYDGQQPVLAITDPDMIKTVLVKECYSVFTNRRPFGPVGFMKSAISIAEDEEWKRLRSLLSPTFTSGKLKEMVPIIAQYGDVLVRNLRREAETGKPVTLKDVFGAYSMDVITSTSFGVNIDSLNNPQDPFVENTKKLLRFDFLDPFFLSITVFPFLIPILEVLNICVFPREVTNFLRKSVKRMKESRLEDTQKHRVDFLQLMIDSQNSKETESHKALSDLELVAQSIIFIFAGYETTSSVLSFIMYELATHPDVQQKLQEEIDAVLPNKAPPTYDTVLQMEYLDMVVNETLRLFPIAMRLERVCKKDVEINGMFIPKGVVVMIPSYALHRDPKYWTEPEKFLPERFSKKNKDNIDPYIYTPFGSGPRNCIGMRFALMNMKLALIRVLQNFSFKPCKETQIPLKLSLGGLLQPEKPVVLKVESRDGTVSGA
Method: as §1, §2, §3

hrCYP2C8 = target: T3, hrCYP2C8 (Homo sapiens, UniProt P10632); conditions: recombinant enzyme, 5 μM, pH 7.4
T3 sequence (P10632 1-490): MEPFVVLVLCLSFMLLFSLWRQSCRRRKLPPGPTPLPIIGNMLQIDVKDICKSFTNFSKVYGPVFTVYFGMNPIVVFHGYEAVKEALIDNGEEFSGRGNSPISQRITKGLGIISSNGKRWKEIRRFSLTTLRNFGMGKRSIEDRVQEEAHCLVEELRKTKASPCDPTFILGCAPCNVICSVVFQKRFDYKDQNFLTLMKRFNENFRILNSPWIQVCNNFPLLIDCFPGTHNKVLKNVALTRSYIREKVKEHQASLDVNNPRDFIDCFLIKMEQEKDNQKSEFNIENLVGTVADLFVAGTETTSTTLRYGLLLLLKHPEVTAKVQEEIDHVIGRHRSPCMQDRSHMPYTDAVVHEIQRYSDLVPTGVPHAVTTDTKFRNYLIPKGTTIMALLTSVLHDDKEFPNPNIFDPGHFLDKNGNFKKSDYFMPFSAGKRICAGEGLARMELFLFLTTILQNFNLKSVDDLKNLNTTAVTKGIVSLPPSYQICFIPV
Method: as §1, §2, §3

[1] = set-up: species or system male Sprague Dawley rats; conditions: rat, in vivo
Method: Total urine recovery data for Tenofovir, TDF, and PB was calculated for the 24 hour collection period on Days 1 and 5. […] The reported urine recovery data included amount recovered (ng) and percent recovered (%) for […]. Individual and mean Tenofovir, TDF, and PB urine recovery data were presented with SD, reported to three significant figures, and CV %, reported to one decimal place.

| SMILES | pIC50 (BCRP) | % Remaining of TA (hrCYP2C9; 0 h) [%] | % Remaining of TA (hrCYP2C9; 20 min) [%] | % Remaining of TA (hrCYP2C9; 1 h) [%] | % remained after 60 minutes of incubation (hrCYP2C9; 1 h) | % remained after 60 minutes of incubation (hrCYP2B6; 1 h) | % Remaining of TA (hrCYP2C19; 0 h) [%] | % Remaining of TA (hrCYP2C19; 5 min) [%] | % Remaining of TA (hrCYP2C19; 10 min) [%] | % Remaining of TA (hrCYP2C19; 20 min) [%] | % Remaining of TA (hrCYP2C19; 0.5 h) [%] | % remained after 60 minutes of incubation (hrCYP2C19; 1 h) | % Remaining of TA (hrCYP3A4; 0 h) [%] | % Remaining of TA (hrCYP3A4; 5 min) [%] | % Remaining of TA (hrCYP3A4; 10 min) [%] | % Remaining of TA (hrCYP3A4; 20 min) [%] | % Remaining of TA (hrCYP3A4; 0.5 h) [%] | % remained after 60 minutes of incubation (hrCYP3A4; 1 h) | % remained after 60 minutes of incubation (hrCYP2C8; 1 h) | other results |
| --- | --- | --- | --- | --- | --- | --- | --- | --- | --- | --- | --- | --- | --- | --- | --- | --- | --- | --- | --- | --- |
| C[C@H](CCC(=O)NCCS(=O)(=O)O)[C@H]1CC[C@H]2[C@@H]3[C@@H](O)C[C@@H]4C[C@H](O)CC[C@]4(C)[C@H]3CC[C@]12C [TUDCA, tauroursodeoxycholic acid] | 3.05 to 3.53 | 100 | 98.5 | 90.3 | greater than 90% | greater than 90% | 100 | 96.1 | 98.7 | 94.8 | 95.1 | greater than 90% | 100 | 97.1 | 92.1 | 91.4 | 90.9 | greater than 90% | greater than 90% | % Remaining of TA (hrCYP2C9; 5 min): 96.0%; % Remaining of TA (hrCYP2C9; 10 min): 98.8%; % Remaining of TA (hrCYP2C9; 0.5 h): 97.8%; % Remaining of TA (hrCYP2B6; 0 h): 100%; % Remaining of TA (hrCYP2B6; 5 min): 97.6%; % Remaining of TA (hrCYP2B6; 10 min): 97.0%; % Remaining of TA (hrCYP2B6; 20 min): 99.3%; % Remaining of TA (hrCYP2B6; 0.5 h): 99.7%; % Remaining of TA (hrCYP2B6; 1 h): 101%; % Remaining of TA (hrCYP3A4; 1 h): 91.1%; % Remaining of TA (hrCYP2C8; 0 h): 100%; % Remaining of TA (hrCYP2C8; 10 min): 99.3%; % Remaining of TA (hrCYP2C8; 20 min): 101%; % Remaining of TA (hrCYP2C8; 0.5 h): 101%; % Remaining of TA (hrCYP2C8; 1 h): 99.8%; detection in urine [1]: not detected in any urine samples |
| O=C(O)CCCc1ccccc1 [PB, sodium phenylbutyrate] | 2.15 to 2.62 | 100 | 99.5 | 98.0 | greater than 90% | greater than 90% | 100 | 97.4 | 101 | 99.7 | 97.5 | greater than 90% | 100 | 100 | 97.9 | 100 | 98.1 | greater than 90% | greater than 90% | % Remaining of TA (hrCYP2C19; 1 h): 99.8%; Urine concentrations ([1]; male, Sprague Dawley, po): Urine concentrations for PB analysis in all animals on Day 1, for TUDCA analysis in all animals on Days 1 and 5, and for TDF analysis in two animals on Day 1 and one animal on Day 5 were BLQ (<20 ng/mL) so no recovery data was calculated. |
